Measured values from US8906901B2, “Administration of dipeptidyl peptidase inhibitors” (priority 2005, dated 2014).

System: db/db (BKS.Cg—+Lepr^db/+Lepr^db) mice
Assay: Plasma glucose after 21 days of administration in powder chow, alone or with pioglitazone
Format: in vivo
Conditions: male db/db mice, 21 days in chow, fed condition; 0.03% (w/w) succinate salt of Compound I and/or 0.0075% (w/w) pioglitazone hydrochloride; mean (n=7) ± SD
Source text: Male db/db (BKS.Cg—+Lepr^db/+Lepr^db) mice (6 weeks of age, CLEA Japan (Tokyo, Japan)) were divided into 4 groups (n=7 in each group) comprising Group A to Group D. Group A had free access to CE-2 powder chow (CLEA Japan) for 21 days. […] During 21 days of administration of the powder chow, there were not significant differences in the administration amount of the powder chow in the above 4 groups. After 21 days of administration of the powder chow, blood samples were taken from the orbital veins of the mice by capillary pipette under feeding condition, and plasma glucose levels were enzymatically measured by using Autoanalyzer 7080 (Hitachi, Japan). The values in the table means average (n=7)±standard deviation.

SMILES: Cn1c(=O)cc(N2CCC[C@@H](N)C2)n(Cc2cc(F)ccc2C#N)c1=O [Compound I, 2-[6-(3-Amino-piperidin-1-yl)-3-methyl-2,4-dioxo-3,4-dihydro-2H-pyrimidin-1-ylmethyl]-4-fluoro-benzonitrile]
- Plasma Glucose: 410.3 ± 47.9 mg/dL
